Measured values from US7655629B2, “Peptides and their use for the treatment of HIV infections” (priority 2002, dated 2010).
Positions of bridges follow the written chain, without caps; N, C: chain ends. Non-standard residues stand in square brackets, D forms with d. Residues, ends and D or L forms follow the SMILES beside them. Tic = O=C(O)[C@@H]1Cc2ccccc2CN1

Key:
HIV-1 NL4-3 DTV = conditions: read-out: IC50 DTV, P4-CCR5 cells, peptide 2 h before infection, readout three days after infection
From the text: (§1) These cells contain the β-galactosidase reporter gene under the control of the HIV-1 promoter. Thus, activation of the β-galactosidase reporter gene allows to measure the efficiency of HIV-1 infection and thus to quantitate the potency of HIV-1 inhibitors (Detheux M. et al., 2000; Journal of Experimental Medicine 192, 1501-1508; Münch et al., 2002; Antimicrobial Agents and Chemotherapy 46, 982-990).
(§2) To perform a typical infection assay, P4-CCR5 cells (Charneau et al., 1994; Journal of Molecular Biology 241, 651-662; Charneau et al., Virology. 1994 205, 247-53) were kept in RPMI 1640 medium supplemented with 10 volume % FCS. This cell line coexpresses CD4 and both HIV-1 coreceptors CCR5 and CXCR4 and contains the β-galactosidase gene under the control of the HIV-1 promoter. Virus stocks were generated by the calcium coprecipitation method as described (Detheux et al., J Exp Med. 192:1501-8; 2000), and the p24 antigen levels were quantitated with an HIV p24 ELISA kit obtained through the NIH AIDS Reagent Program. Cells were seeded in flat-bottomed 96-well dishes, cultured overnight, and incubated with the different doses of peptide for 2 h before infection with virus containing 1 ng of p24 antigen in a total volume of […] of medium. After overnight incubation, cells were washed twice and cultivated in fresh culture medium without inhibitory peptide. Three days after infection the cells were lysed, and infectivity was quantitated using the Galacto-Light Plus™ chemiluminescence reporter assay kit (Tropix, Bedford, Mass.) as recommended by the manufacturer. All infections were performed in quintuplicate.

X4-tropic HIV-1 NL4-3 = conditions: read-out: IC50 NL4-3; P4-CCR5 cells, HIV-1 NL4-3, peptide 2 h before infection, readout three days after infection
From the text: as §1, §2

CC[C@H](C)[C@H](NC(=O)[C@H](C)NC(=O)[C@H](CCC(=O)O)NC(=O)[C@@H](N)CC(C)C)C(=O)N1CCC[C@H]1C(=O)N[C@H]1CSSC[C@@H](C(=O)N[C@H](C(=O)NCC(=O)N[C@@H](Cc2ccccc2)C(=O)NCC(=O)N[C@@H](CCCCN)C(=O)N2CCC[C@H]2C(=O)N[C@@H](Cc2ccccc2)C(=O)N[C@H](C(=O)N[C@@H](Cc2ccccc2)C(=O)O)C(C)C)C(C)C)NC(=O)[C@@H]2CCCN2C(=O)[C@@H]2CCCN2C(=O)[C@H]([C@@H](C)CC)NC(=O)[C@H](CO)NC1=O [VIR-162] (H-LEAIPCSIPPCVGFGKPFVF-OH; disulfide 6-11) was tested, and the IC50 (HIV-1 NL4-3 DTV) was 950 nM and the IC50 (X4-tropic HIV-1 NL4-3) was 660 nM.
Work on CC[C@H](C)[C@H](NC(=O)[C@H](C)NC(=O)[C@H](CCC(=O)O)NC(=O)[C@@H](N)CC(C)C)C(=O)N1CCC[C@H]1C(=O)N[C@@H](CCSC)C(=O)N[C@@H](CO)C(=O)N[C@H](C(=O)N1CCC[C@H]1C(=O)N1CCC[C@@H]1C(=O)N[C@@H](CCC(=O)O)C(=O)N[C@H](C(=O)N[C@@H](Cc1ccccc1)C(=O)N[C@@H](Cc1ccccc1)C(=O)NCC(=O)N[C@@H](CCCCN)C(=O)N1CCC[C@H]1C(=O)N[C@@H](Cc1ccccc1)C(=O)N[C@H](C(=O)N[C@@H](Cc1ccccc1)C(=O)O)C(C)C)C(C)C)[C@@H](C)CC [VIR-192, LEAIPMSIPpEVFFGKPFVF] (H-LEAIPMSIP[dP]EVFFGKPFVF-OH) yielded an IC50 (HIV-1 NL4-3 DTV) of 1210 nM and an IC50 (X4-tropic HIV-1 NL4-3) of 1540 nM.
In the case of CC[C@H](C)[C@H](NC(=O)[C@H](C)NC(=O)[C@H](CCC(=O)O)NC(=O)[C@@H](N)CC(C)C)C(=O)N1CCC[C@H]1C(=O)N[C@H]1CSSC[C@@H](C(=O)N[C@@H](Cc2ccccc2)C(=O)N[C@@H](C)C(=O)N[C@@H](Cc2ccccc2)C(=O)N[C@@H](CC(N)=O)C(=O)N[C@@H](CCCCN)C(=O)N[C@@H](CC(=O)O)C(=O)N[C@@H](Cc2ccccc2)C(=O)N[C@H](C(=O)N[C@@H](Cc2ccccc2)C(=O)O)C(C)C)NC(=O)[C@@H]2CCCN2C(=O)[C@@H]2CCCN2C(=O)[C@H]([C@@H](C)CC)NC(=O)[C@H](CO)NC1=O [VIR-356] (H-LEAIPCSIPPCFAFNKDFVF-OH; disulfide 6-11), the IC50 (X4-tropic HIV-1 NL4-3) is reported as 700 nM.
Work on CC[C@H](C)[C@H](NC(=O)[C@@H]1CCCN1C(=O)[C@@H](NC(=O)[C@H](C)NC(=O)[C@H](CCC(=O)O)NC(=O)[C@@H](N)CC(C)C)[C@@H](C)CC)C(=O)N[C@@H](CO)C(=O)N[C@H](C(=O)N1CCC[C@H]1C(=O)N1CCC[C@@H]1C(=O)N[C@@H](CCC(=O)O)C(=O)N[C@H](C(=O)N[C@@H](Cc1c[nH]c2ccccc12)C(=O)N[C@@H](Cc1ccccc1)C(=O)N[C@@H](CC(N)=O)C(=O)N[C@@H](CCCCN)C(=O)N1CCC[C@H]1C(=O)N[C@@H](Cc1ccccc1)C(=O)N[C@H](C(=O)N[C@@H](Cc1ccccc1)C(=O)O)C(C)C)C(C)C)[C@@H](C)CC [VIR-298, LEAIPISIPpEVWFNKPFVF] (H-LEAIPISIP[dP]EVWFNKPFVF-OH) yielded an IC50 (X4-tropic HIV-1 NL4-3) of 969 nM.
In the case of CC[C@H](C)[C@H](NC(=O)[C@@H]1CCCN1C(=O)[C@@H](NC(=O)[C@H](CCCCN)NC(=O)[C@H](CCC(=O)O)NC(=O)[C@@H](N)CC(C)C)[C@@H](C)CC)C(=O)NCC(=O)N[C@H](C(=O)N1CCC[C@H]1C(=O)N1CCC[C@@H]1C(=O)N[C@@H](CCC(=O)O)C(=O)N[C@H](C(=O)N[C@@H](C)C(=O)N[C@@H](Cc1ccccc1)C(=O)N[C@@H](CC(N)=O)C(=O)N[C@@H](CCCCN)C(=O)N1Cc2ccccc2C[C@H]1C(=O)N[C@@H](Cc1ccccc1)C(=O)N[C@H](C(=O)N[C@@H](Cc1ccccc1)C(=O)O)C(C)C)C(C)C)[C@@H](C)CC [VIR-485, LEKIPIGIPpEVAFNK(L-Tic)FVF] (H-LEKIPIGIP[dP]EVAFNK[Tic]FVF-OH), the IC50 (X4-tropic HIV-1 NL4-3) is reported as 760 nM.
